In US10798943B2, “Use of 6-anilino purine derivatives to improve heat stress tolerance of rice seedlings” (SYNGENTA PARTICIPATIONS AG, priority 2016, dated 2020):

Legend:
Format in all cases: in vivo
[1] = system: rice seedlings (hybrid rice variety ADT45) under heat stress; assay: Transplant shock stress, visual assessment of damage severity, Ramapuram trial; settings: for Transplanting shock stress (8th day) / Transplanting shock stress (12th day) / Transplanting shock stress (4th day): Ramapuram
Excerpt: (§1) Trials were setup in two locations in India to test the effect of compounds of formula I on tolerance of rice seedlings to heat stress during transplantation.
(§2) For each trial, hybrid rice variety ADT45 was sown in seedling boxes. A compound of formula (Ia) was applied by foliar spray in the form of an EC formulation, at various dose rates and seedling growth stages as shown in Table 1.
(§3) Transplanting took place at the […] growth stage. Transplant shock was used as an indicator of tolerance to heat stress, and was measured via visual assessment of damage severity on a scale of 0% (no damage) to 100% (dead plant); observations such as yellowing and leaf tip burning are indicators of damage. Transplant shock was also assessed by measuring NVDI values using a Green Seeker™ crop sensor, which measures the percentage green area. A low transplant shock stress rating and high NVDI rating indicate improved tolerance to transplant shock stress.
(§4) The trial was carried out between 5 Aug. 2015 and 9 Sep. 2015, with transplanting on 15 Aug. 2015. The mean maximum daily temperature during the trial period was 35.3° C., and mean minimum daily temperature during the trial period was 23.7° C. The mean temperature during the entire trial period was 30.2° C.

[2] = system: rice seedlings (hybrid rice variety ADT45) under heat stress; assay: Green seeker data, Ramapuram trial; set-up: key: percentage green area (NDVI), higher = better tolerance
Excerpt: as §1, §2, §3, §4

[3] = system: rice seedlings (hybrid rice variety ADT45); assay: Phytotoxicity assessments at Ramapuram trial; settings: for Greenness at 3.2 leaf / Seedling height at 3.2 leaf / Seedling injury / Time to 3.2 leaf / Uniformity of foliage growth at 3.2 leaf / Uniformity of greening at 3.2 leaf / Whiteness of root mat at 3.2 leaf: Ramapuram
Procedure: For each trial, hybrid rice variety ADT45 was sown in seedling boxes. A compound of formula (Ia) was applied by foliar spray in the form of an EC formulation, at various dose rates and seedling growth stages as shown in Table 1. [table] […] The trial was carried out between 5 Aug. 2015 and 9 Sep. 2015, with transplanting on 15 Aug. 2015. The mean maximum daily temperature during the trial period was 35.3° C., and mean minimum daily temperature during the trial period was 23.7° C. The mean temperature during the entire trial period was 30.2° C.

rice under heat stress = assay: Yield in 2016 trial (Trial 3)
[4] = treatment 2: 5 g ai/ha, Pigeon-breast
[5] = treatment 3: 10 g ai/ha, Pigeon-breast
[6] = treatment 4: 20 g ai/ha, Pigeon-breast
[7] = treatment 6: 10 g ai/ha, 2-leaf
[8] = treatment 7: 20 g ai/ha, 2-leaf
[9] = treatment 9: 10 g ai/ha, 3-leaf
[10] = treatment 10: 20 g ai/ha, 3-leaf
[11] = treatment 3: 10 g ai/ha, Sowing
[12] = treatment 5: 10 g ai/ha, 2-leaf
[13] = treatment 7: 10 g ai/ha, 3-leaf

Structure (SMILES): COc1cccc(Nc2nc(F)nc3[nH]cnc23)c1 [Formula Ia]
- Tolerance to heat stress / transplant shock stress, comparison of treatments ([1]; Ramapuram trial, treatments 5 and 6 (2-leaf growth stage, 5-10 g ai/ha)): giving the best results
- Transplanting shock stress (8th day) [1, 4]: 12%
- Transplanting shock stress (12th day) [1, 4]: 13%
- Transplanting shock stress (4th day) ([1]; treatment 2: 5 g ai/ha, Pigeon-breast, scale 0% no damage to 100% dead plant): 4%
- Transplanting shock stress (4th day) [1, 5]: 3%
- Transplanting shock stress (8th day) [1, 5]: 7%
- Transplanting shock stress (12th day) [1, 5]: 17%
- Transplanting shock stress (4th day) [1, 6]: 4%
- Transplanting shock stress (8th day) [1, 6]: 8%
- Transplanting shock stress (12th day) [1, 6]: 20%
- Transplanting shock stress (4th day) ([1]; treatment 5: 5 g ai/ha, 2-leaf): 0%
- Transplanting shock stress (8th day) ([1]; treatment 5: 5 g ai/ha, 2-leaf): 2%
- Transplanting shock stress (12th day) ([1]; treatment 5: 5 g ai/ha, 2-leaf): 4%
- Transplanting shock stress (4th day) [1, 7]: 0%
- Transplanting shock stress (8th day) [1, 7]: 1%
- Transplanting shock stress (12th day) [1, 7]: 7%
- Transplanting shock stress (4th day) [1, 8]: 9%
- Transplanting shock stress (8th day) [1, 8]: 8%
- Transplanting shock stress (12th day) [1, 8]: 11%
- Transplanting shock stress (4th day) ([1]; treatment 8: 5 g ai/ha, 3-leaf): 7%
- Transplanting shock stress (8th day) ([1]; treatment 8: 5 g ai/ha, 3-leaf): 12%
- Transplanting shock stress (12th day) ([1]; treatment 8: 5 g ai/ha, 3-leaf): 13%
- Transplanting shock stress (4th day) [1, 9]: 13%
- Transplanting shock stress (8th day) [1, 9]: 20%
- Transplanting shock stress (12th day) [1, 9]: 31%
- Transplanting shock stress (4th day) [1, 10]: 23%
- Transplanting shock stress (8th day) [1, 10]: 37%
- Transplanting shock stress (12th day) [1, 10]: 34%
- Green seeker data (15 DAT afternoon) [2, 4]: 28
- Green seeker data (15 DAT evening) [2, 4]: 31
- Green seeker data (15 DAT morning) [2, 4]: 22
- Green seeker data (15 DAT afternoon) [2, 5]: 25
- Green seeker data (15 DAT evening) [2, 5]: 29
- Green seeker data (15 DAT morning) [2, 5]: 25
- Green seeker data (15 DAT afternoon) [2, 6]: 28
- Green seeker data (15 DAT evening) [2, 6]: 25
- Green seeker data (15 DAT morning) [2, 6]: 21
- Green seeker data (15 DAT afternoon) ([2]; treatment 5: 5 g ai/ha, 2-leaf): 27
- Green seeker data (15 DAT evening) ([2]; treatment 5: 5 g ai/ha, 2-leaf): 34
- Green seeker data (15 DAT morning) ([2]; treatment 5: 5 g ai/ha, 2-leaf): 25
- Green seeker data (15 DAT afternoon) [2, 7]: 29
- Green seeker data (15 DAT evening) [2, 7]: 32
- Green seeker data (15 DAT morning) [2, 7]: 28
- Green seeker data (15 DAT afternoon) [2, 8]: 26
- Green seeker data (15 DAT evening) [2, 8]: 26
- Green seeker data (15 DAT morning) [2, 8]: 22
- Green seeker data (15 DAT afternoon) ([2]; treatment 8: 5 g ai/ha, 3-leaf): 26
- Green seeker data (15 DAT evening) ([2]; treatment 8: 5 g ai/ha, 3-leaf): 30
- Green seeker data (15 DAT morning) ([2]; treatment 8: 5 g ai/ha, 3-leaf): 23
- Green seeker data (15 DAT afternoon) [2, 9]: 26
- Green seeker data (15 DAT evening) [2, 9]: 31
- Green seeker data (15 DAT morning) [2, 9]: 23
- Green seeker data (15 DAT afternoon) [2, 10]: 30
- Green seeker data (15 DAT evening) [2, 10]: 29
- Green seeker data (15 DAT morning) [2, 10]: 25
- Phytotoxic effects to the rice seedlings (summary) ([3]; Ramapuram trial, some marginal effects at the highest dose rate): did not cause any phytotoxic effects
- Greenness at 3.2 leaf [3, 4]: 3 unit
- Seedling height at 3.2 leaf [3, 4]: 13 cm
- Seedling injury [3, 4]: 0%
- Time to 3.2 leaf [3, 4]: 14 days
- Uniformity of foliage growth at 3.2 leaf [3, 4]: 90%
- Uniformity of greening at 3.2 leaf [3, 4]: 95%
- Whiteness of root mat at 3.2 leaf [3, 4]: 90%
- Greenness at 3.2 leaf [3, 5]: 3 unit
- Seedling height at 3.2 leaf [3, 5]: 13 cm
- Seedling injury [3, 5]: 0%
- Time to 3.2 leaf [3, 5]: 14 days
- Uniformity of foliage growth at 3.2 leaf [3, 5]: 90%
- Uniformity of greening at 3.2 leaf [3, 5]: 95%
- Whiteness of root mat at 3.2 leaf [3, 5]: 90%
- Greenness at 3.2 leaf [3, 6]: 3 unit
- Seedling height at 3.2 leaf [3, 6]: 13 cm
- Seedling injury [3, 6]: 0%
- Time to 3.2 leaf [3, 6]: 14 days
- Uniformity of foliage growth at 3.2 leaf [3, 6]: 90%
- Uniformity of greening at 3.2 leaf [3, 6]: 95%
- Whiteness of root mat at 3.2 leaf [3, 6]: 90%
- Greenness at 3.2 leaf ([3]; treatment 5: 5 g ai/ha, 2-leaf): 3 unit
- Seedling height at 3.2 leaf ([3]; treatment 5: 5 g ai/ha, 2-leaf): 15 cm
- Seedling injury ([3]; treatment 5: 5 g ai/ha, 2-leaf): 0%
- Time to 3.2 leaf ([3]; treatment 5: 5 g ai/ha, 2-leaf): 13 days
- Uniformity of foliage growth at 3.2 leaf ([3]; treatment 5: 5 g ai/ha, 2-leaf): 90%
- Uniformity of greening at 3.2 leaf ([3]; treatment 5: 5 g ai/ha, 2-leaf): 95%
- Whiteness of root mat at 3.2 leaf ([3]; treatment 5: 5 g ai/ha, 2-leaf): 85%
- Greenness at 3.2 leaf [3, 7]: 3 unit
- Seedling height at 3.2 leaf [3, 7]: 15 cm
- Seedling injury [3, 7]: 2%
- Time to 3.2 leaf [3, 7]: 13 days
- Uniformity of foliage growth at 3.2 leaf [3, 7]: 90%
- Uniformity of greening at 3.2 leaf [3, 7]: 95%
- Whiteness of root mat at 3.2 leaf [3, 7]: 85%
- Greenness at 3.2 leaf [3, 8]: 2.5 unit
- Seedling height at 3.2 leaf [3, 8]: 15 cm
- Seedling injury [3, 8]: 5%
- Time to 3.2 leaf [3, 8]: 13 days
- Uniformity of foliage growth at 3.2 leaf [3, 8]: 90%
- Uniformity of greening at 3.2 leaf [3, 8]: 85%
- Whiteness of root mat at 3.2 leaf [3, 8]: 80%
- Greenness at 3.2 leaf ([3]; treatment 8: 5 g ai/ha, 3-leaf): 3 unit
- Seedling height at 3.2 leaf ([3]; treatment 8: 5 g ai/ha, 3-leaf): 14 cm
- Seedling injury ([3]; treatment 8: 5 g ai/ha, 3-leaf): 0%
- Time to 3.2 leaf ([3]; treatment 8: 5 g ai/ha, 3-leaf): 13 days
- Uniformity of foliage growth at 3.2 leaf ([3]; treatment 8: 5 g ai/ha, 3-leaf): 90%
- Uniformity of greening at 3.2 leaf ([3]; treatment 8: 5 g ai/ha, 3-leaf): 95%
- Whiteness of root mat at 3.2 leaf ([3]; treatment 8: 5 g ai/ha, 3-leaf): 90%
- Greenness at 3.2 leaf [3, 9]: 3 unit
- Seedling height at 3.2 leaf [3, 9]: 15 cm
- Seedling injury [3, 9]: 0%
- Time to 3.2 leaf [3, 9]: 13 days
- Uniformity of foliage growth at 3.2 leaf [3, 9]: 90%
- Uniformity of greening at 3.2 leaf [3, 9]: 95%
- Whiteness of root mat at 3.2 leaf [3, 9]: 90%
- Greenness at 3.2 leaf [3, 10]: 3 unit
- Seedling height at 3.2 leaf [3, 10]: 15 cm
- Seedling injury [3, 10]: 0%
- Time to 3.2 leaf [3, 10]: 13 days
- Uniformity of foliage growth at 3.2 leaf [3, 10]: 90%
- Uniformity of greening at 3.2 leaf [3, 10]: 95%
- Whiteness of root mat at 3.2 leaf [3, 10]: 90%
- Average yield increase compared to UTC (rice under heat stress; treatment 2: 5 g ai/ha, Sowing): +2.9%
- Yield at 14% MC (rice under heat stress; treatment 2: 5 g ai/ha, Sowing): 6799 kg/ha
- Average yield increase compared to UTC (rice under heat stress; [11]): −0.1%
- Yield at 14% MC (rice under heat stress; [11]): 6603 kg/ha
- Average yield increase compared to UTC (rice under heat stress; treatment 4: 5 g ai/ha, 2-leaf): +6.2%
- Yield at 14% MC (rice under heat stress; treatment 4: 5 g ai/ha, 2-leaf): 7014 kg/ha
- Average yield increase compared to UTC (rice under heat stress; [12]): +8.8%
- Yield at 14% MC (rice under heat stress; [12]): 7189 kg/ha
- Average yield increase compared to UTC (rice under heat stress; treatment 6: 5 g ai/ha, 3-leaf): +5.6%
- Yield at 14% MC (rice under heat stress; treatment 6: 5 g ai/ha, 3-leaf): 6978 kg/ha
- Average yield increase compared to UTC (rice under heat stress; [13]): +3.3%
- Yield at 14% MC (rice under heat stress; [13]): 6830 kg/ha
